Results: US10723741B1, “DNA polymerase IIIC inhibitors and use thereof” (Acurx Pharmaceuticals, LLC, priority 2018, dated 2020)

The molecules below were run against T1, Staphylococcus aureus DNA pol IIIC enzyme (Staphylococcus aureus, UniProt Q5HGG7) (assay: Ki assay for DNA polymerase IIIC (3H-dTTP incorporation, truncated assay)). Settings: Ki = concentration giving 50% inhibition of control activity; range stated for the listed group; read-out: Ki against Staphylococcus aureus DNA pol IIIC enzyme.
T1 construct: The recombinant protein had full length of original protein and a His tag, a thrombin site and a T7 tag at N-terminus; His tag (N); thrombin site (N); T7 tag (N); made in house; host or cells: E. coli BL21 (DE3), plasmid pET-28a(+)
T1 sequence (Q5HGG7 1-1438): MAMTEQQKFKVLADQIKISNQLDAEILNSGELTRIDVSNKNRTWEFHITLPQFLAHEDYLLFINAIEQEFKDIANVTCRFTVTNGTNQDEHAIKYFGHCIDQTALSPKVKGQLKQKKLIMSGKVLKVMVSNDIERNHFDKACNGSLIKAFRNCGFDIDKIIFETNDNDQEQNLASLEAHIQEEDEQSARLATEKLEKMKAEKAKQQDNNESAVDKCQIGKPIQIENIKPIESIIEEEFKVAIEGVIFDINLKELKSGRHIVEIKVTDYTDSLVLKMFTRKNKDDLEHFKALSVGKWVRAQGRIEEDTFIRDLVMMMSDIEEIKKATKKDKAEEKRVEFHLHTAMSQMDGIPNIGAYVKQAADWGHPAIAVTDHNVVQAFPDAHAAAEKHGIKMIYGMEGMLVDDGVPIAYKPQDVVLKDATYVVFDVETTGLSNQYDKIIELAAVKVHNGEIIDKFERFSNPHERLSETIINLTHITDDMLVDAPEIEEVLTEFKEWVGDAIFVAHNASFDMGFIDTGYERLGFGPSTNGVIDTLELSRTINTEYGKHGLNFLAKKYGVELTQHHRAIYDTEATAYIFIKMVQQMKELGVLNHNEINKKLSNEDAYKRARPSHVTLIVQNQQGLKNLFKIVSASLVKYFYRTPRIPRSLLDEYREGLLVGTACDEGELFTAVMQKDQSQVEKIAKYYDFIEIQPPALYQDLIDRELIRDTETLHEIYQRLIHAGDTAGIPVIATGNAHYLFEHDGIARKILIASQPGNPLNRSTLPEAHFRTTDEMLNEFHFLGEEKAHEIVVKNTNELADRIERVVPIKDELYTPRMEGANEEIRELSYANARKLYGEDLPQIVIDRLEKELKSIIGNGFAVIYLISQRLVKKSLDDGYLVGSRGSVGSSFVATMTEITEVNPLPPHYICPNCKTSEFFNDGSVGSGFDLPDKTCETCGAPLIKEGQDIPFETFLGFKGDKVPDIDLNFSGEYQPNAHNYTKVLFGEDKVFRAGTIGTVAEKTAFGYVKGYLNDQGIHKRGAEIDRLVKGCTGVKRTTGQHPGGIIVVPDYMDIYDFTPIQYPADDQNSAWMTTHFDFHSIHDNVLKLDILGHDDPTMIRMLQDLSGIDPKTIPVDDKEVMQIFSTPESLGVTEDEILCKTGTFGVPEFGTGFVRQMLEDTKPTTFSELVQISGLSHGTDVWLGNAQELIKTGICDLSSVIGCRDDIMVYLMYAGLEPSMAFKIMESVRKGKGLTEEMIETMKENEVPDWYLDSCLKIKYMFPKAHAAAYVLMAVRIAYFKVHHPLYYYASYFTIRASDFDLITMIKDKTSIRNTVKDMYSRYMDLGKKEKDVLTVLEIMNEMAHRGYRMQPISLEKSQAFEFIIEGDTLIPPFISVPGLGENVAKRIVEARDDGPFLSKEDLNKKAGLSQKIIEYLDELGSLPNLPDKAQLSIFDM
Format: biochemical
Text: The ability of a compound to inhibit the activity of DNA pol IIIC enzyme can be tested by using a DNA polymerase assay as described, for example, in Barnes and Brown, Nucl. Acids Res. 1979, 6, 1203-1219; Trantolo et al., J. Med. Chem. 1986, 29, 676-681; Mills et al., J. Bacterial. 1977, 132, 641-649; Low et al., J. Biol. Chem. 1976, 251, 1311-1325. This rapid screening method can use natural or recombinant DNA pol III enzymes in a standard DNA polymerase activity assay. By including a test compound in a side-by-side assay with a control, the effect of the test compound on polymerase activity can be assessed. Compounds with an appropriate level (Ki<[…]) of inhibition of the natural or recombinant bacterial DNA polymerase III are preferred.
The DNA polymerase IIIC coding genes were amplified from genomic DNA. The primers were designed so the 5′-terminal and 3′-terminal contain BamHI and XhoI cutting site respectively. The fragment was directly inserted into expression plasmid pET-28a(+) between BamHI and XhoI sites. The recombinant protein had full length of original protein and a His tag, a thrombin site and a T7 tag at N-terminus. The coding sequence of recombinant protein was confirmed by Sanger sequencing using 8 primers to cover the entire coding regions.
The plasmid was transferred into BL21 (DE3) competent E. coli cells. The positive colonies were inoculated into 1 L LB medium and incubated at 37° C. with 200 rpm rotation to reach OD600=0.6. The inducer IPTG 1 mM was then added to induce the expression for 18 hours at 16° C. The cells were harvested and suspended in lysis buffer (25 mM Tris-HCl pH=7.5, 0.15 M NaCl, 20 mM imidazole, 2 mM β-mecaptoethanol and 1×Roche proteinase inhibitor cocktail). The cells were lyzed by sonication, and the debris was spun down at 50000 g for 1 hour.
The protein was isolated first by passing through the lysate through Ni column. The column was washed with 50 column volume (CV) binding buffer (lysis buffer without proteinase inhibitor) and then 10 CVs of washing buffer (binding buffer with total 40 mM imidazole). The protein was eluted out with elusion buffer (binding buffer with total 300 mM imidazole).
The crude extract was then further purified by size exclusion chromatography using a Superdex 200 increase 10/300 column with 25 mM Tris-HCl pH 7.5, 0.15 M NaCl, 5% Glycerol and 1 mM DTT. The final product was stored as 50-100 μL aliquots at −80° C.
The compounds were dissolved in DMSO to 1 mg/ml (or 10 mg/ml) as compound working solution. On the day of the test, […] of DMSO was added into well A, and 100 μL of DMSO was added into wells B through well H in a round bottom 96 well plate (Corning-3788). An aliquot of 20 μL compound working solution was added into well A and mixed by pipetting. From well A, […] solution was transferred to well B and mixed by pipetting to make a 3 x dilution. The procedure was repeated for well B to well C, and so forth until well G. Well H contained DMSO only. This generated a serial of compound working solutions with concentrations at 100, 33.3, 11.1, 3.7, 1.2, 0.4, 0.14, and 0 μg/ml in pure DMSO. This was deemed the ‘mother plate’.
Using a 96-head pipette station (CyBio), 1 μL compound working solutions were transferred from the mother plate into an identical 96-well plate. This was the ‘testing plate’. The testing plate was kept at room temperature.
The enzyme (DNA polymerase IIIC) samples were taken out from −80° C. freezer. It was thawed and kept on ice. The enzyme was diluted to 0.025-0.06 U/μL with dilution buffer (25 mM Tris-HCl, pH=7.5, 0.15M NaCl, 5% Glycerol, 1 mM DTT). One unit of enzyme is defined as the amount of enzyme could incorporate 250 μmole of dTTP in 30 minutes in a standard assay (with the presence of all nucleotide as substrate, in contrast to “truncated assay” from which dGTP was omitted) in the same system. The diluted enzymes were added into a new 96-well plate (Corning-3788) 20 μL per well. This plate was kept on ice. […]

Row | Structure (SMILES) | Ki [nM]
1 | Cn1ncc2nc(NCc3ccc(Cl)c(Cl)c3)[nH]c(=O)c21 [Compound 2, 5-((3,4-Dichlorobenzyl)amino)-1-methyl-1H-pyrazolo[4,3-d]pyrimidin-7(6H)-one] | 53 to 1000
2 | CN(C)CCOCCn1ncc2nc(NCc3ccc(Cl)c(Cl)c3)[nH]c(=O)c21.Cl [Compound 211, 5-((3,4-dichlorobenzyl)amino)-1-(2-(2-(dimethylamino)ethoxy)ethyl)-1H-pyrazolo[4,3-d]pyrimidin-7(6H)-one hydrochloride] | 53 to 1000
3 | Cc1nn(C)c2c(=O)[nH]c(NCc3ccc(Cl)c(Cl)c3)nc12 [Compound 44, 5-((3,4-dichlorobenzyl)amino)-1,3-dimethyl-1H-pyrazolo[4,3-d]pyrimidin-7(6H)-one] | 53 to 1000
4 | O=c1[nH]c(NCc2ccc(Cl)c(Cl)c2)nc2cn[nH]c12 [Compound 77, 5-((3,4-dichlorobenzyl)amino)-1H-pyrazolo[4,3-d]pyrimidin-7(6H)-one] | 53 to 1000
5 | COCCn1ncc2nc(NCc3ccc(Cl)c(Cl)c3)[nH]c(=O)c21 [Compound 126, 5-((3,4-dichlorobenzyl)amino)-1-(2-methoxyethyl)-1H-pyrazolo[4,3-d]pyrimidin-7(6H)-one] | 53 to 1000
6 | Cl.Cl.O=c1[nH]c(NCc2ccc(Cl)c(Cl)c2)nc2cnn(CCOCCN3CCNCC3)c12 [Compound 167, 5-[(3,4-dichlorophenyl)methylamino]-1-[2-(2-piperazin-1-ylethoxy)ethyl]-6H-pyrazolo[4,3-d]pyrimidin-7-one] | 53 to 1000
7 | C=CCn1ncc2nc(NCc3ccc(Cl)c(Cl)c3)[nH]c(=O)c21 [Compound 56, 1-allyl-5-((3,4-dichlorobenzyl)amino)-1H-pyrazolo[4,3-d]pyrimidin-7(6H)-one] | 53 to 1000
8 | Cl.O=c1[nH]c(NCc2ccc(Cl)c(Cl)c2)nc2cnn(CC3CNCCO3)c12 (stereo not drawn) [Compound 149, 5-((3,4-dichlorobenzyl)amino)-1-(morpholin-2-ylmethyl)-1H-pyrazolo[4,3-d]pyrimidin-7(6H)-one hydrochloride] | 53 to 1000

More lines, now with the values ahead:

Row | Ki [nM] | Structure (SMILES)
9 | 53 to 1000 | O=c1[nH]c(NCc2ccc(Cl)c(Cl)c2)nc2cnn(C3CC3)c12 [Compound 213, 1-Cyclopropyl-5-((3,4-dichlorobenzyl)amino)-1H-pyrazolo[4,3-d]pyrimidin-7(6H)-one]
10 | 53 to 1000 | O=C(O)CCC(=O)N1CCC(n2ncc3nc(NCc4ccc(Cl)c(Cl)c4)[nH]c(=O)c32)CC1 [Compound 273, 4-(4-(5-((3,4-dichlorobenzyl)amino)-7-oxo-6,7-dihydro-1H-pyrazolo[4,3-d]pyrimidin-1-yl)piperidin-1-yl)-4-oxobutanoic Acid]
11 | 53 to 1000 | O=c1[nH]c(NCc2ccc(Cl)c(Cl)c2)nc2cnn(C3CCCC3)c12 [Compound 214, 1-cyclopentyl-5-((3,4-dichlorobenzyl)amino)-1H-pyrazolo[4,3-d]pyrimidin-7(6H)-one]
12 | 53 to 1000 | COC(=O)CCCCn1ncc2nc(NCc3ccc(Cl)c(Cl)c3)[nH]c(=O)c21 [Compound 218, methyl 5-[5-[(3,4-dichlorophenyl)methylamino]-7-oxo-6H-pyrazolo[4,3-d]pyrimidin-1-yl]pentanoate]
13 | 53 to 1000 | O=C([C@@H](O)[C@H](O)CO)N1CCC(n2ncc3nc(NCc4ccc(Cl)c(Cl)c4)[nH]c(=O)c32)CC1 [Compound 276, 5-((3,4-dichlorobenzyl)amino)-1-(1-((2S,3R)-2,3,4-trihydroxybutanoyl)piperidin-4-yl)-1H-pyrazolo[4,3-d]pyrimidin-7(6H)-one]
14 | 53 to 1000 | Cl.O=c1[nH]c(NCc2ccc(Cl)c(Cl)c2)nc2cnn(C3CCN(C4CCOCC4)CC3)c12 [Compound 242, 5-((3,4-dichlorobenzyl)amino)-1-(1-(tetrahydro-2H-pyran-4-yl)piperidin-4-yl)-1H-pyrazolo[4,3-d]pyrimidin-7(6H)-one hydrochloride]
15 | 53 to 1000 | O=c1[nH]c(NCc2ccc(Cl)c(Cl)c2)nc2cnn(-c3ccccc3)c12 [Compound 212, 5-[(3,4-dichlorophenyl)methylamino]-1-phenyl-6H-pyrazolo[4,3-d]pyrimidin-7-one]
